In article PMC4853476 (Nature Communications, 2016):
Where two headings read alike, the source gives them in different places. Each block holds one molecule with its values, some of them ahead of it.

What was measured:
human PRC2 complex = human PRC2 complex (Homo sapiens, UniProt O75530+Q15022+Q15910, DEL183-210)
Experimental: All anisotropy titrations were performed at 20 °C using a Jasco FP-8500 fluorimeter.
affinity of PRC2 for H3 peptide.
(a) Direct titration of PRC2 into FAM-K27M (0.4 μM) in the presence
absence of co-factor (white circles).
(320 μM) with unlabelled peptides.
titration of PRC2 into FAM-
The titration in the absence of repressive

PRC2 [1] = settings: repressive peptides; cited from earlier work
PRC2 [2] = settings: kinetic studies, cited from earlier work
Text: In their recent analysis, Brown et al.[19] quantified the inhibitory affect of a series of peptide constructs varying in the side chain (both natural and synthetic) at position 27.

[3] = molecular target: human PRC2 core complex (EZH2^N 1-385 lacking 183-210, EZH2^C 421-746, EED 77-441, SUZ12 535-685) (human) (UniProt Q15910); experiment: fluorescence polarisation; anisotropy displacement titration: unlabelled peptide added to FAM-H3K27M (0.4 μM) and PRC2 ([…]) with SAM (320 μM); 20 °C; 25 mM Hepes pH 7.25, 25 mM NaCl, 1 mM TCEP, 0.01% Brij-35
Chain of human PRC2 core complex (EZH2^N 1-385 lacking 183-210, EZH2^C 421-746, EED 77-441, SUZ12 535-685) (human) (Q15910 other isoform, or with tags, fused parts or gaps, chain 1 of 4): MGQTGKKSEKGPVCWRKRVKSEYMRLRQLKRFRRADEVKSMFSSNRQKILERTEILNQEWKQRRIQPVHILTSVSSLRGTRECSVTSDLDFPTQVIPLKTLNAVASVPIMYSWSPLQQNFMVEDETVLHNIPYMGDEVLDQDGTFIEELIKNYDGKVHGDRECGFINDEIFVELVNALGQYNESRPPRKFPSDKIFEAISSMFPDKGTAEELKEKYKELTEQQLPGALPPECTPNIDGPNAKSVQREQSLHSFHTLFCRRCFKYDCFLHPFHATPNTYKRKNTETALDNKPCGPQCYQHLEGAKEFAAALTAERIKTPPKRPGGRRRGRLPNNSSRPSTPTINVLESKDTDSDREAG
Chain of human PRC2 core complex (EZH2^N 1-385 lacking 183-210, EZH2^C 421-746, EED 77-441, SUZ12 535-685) (human) (Q15910 421-746, chain 2 of 4): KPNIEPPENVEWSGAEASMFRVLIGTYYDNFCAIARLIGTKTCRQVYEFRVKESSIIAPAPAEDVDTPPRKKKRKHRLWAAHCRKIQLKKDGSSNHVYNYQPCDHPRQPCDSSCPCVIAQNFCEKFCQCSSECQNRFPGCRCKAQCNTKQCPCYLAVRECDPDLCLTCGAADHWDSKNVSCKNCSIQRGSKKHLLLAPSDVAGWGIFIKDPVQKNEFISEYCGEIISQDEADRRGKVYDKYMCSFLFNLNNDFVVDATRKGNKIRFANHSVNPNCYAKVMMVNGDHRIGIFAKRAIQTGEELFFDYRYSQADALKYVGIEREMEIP
Chain of human PRC2 core complex (EZH2^N 1-385 lacking 183-210, EZH2^C 421-746, EED 77-441, SUZ12 535-685) (human) (O75530 77-441, chain 3 of 4, further chain): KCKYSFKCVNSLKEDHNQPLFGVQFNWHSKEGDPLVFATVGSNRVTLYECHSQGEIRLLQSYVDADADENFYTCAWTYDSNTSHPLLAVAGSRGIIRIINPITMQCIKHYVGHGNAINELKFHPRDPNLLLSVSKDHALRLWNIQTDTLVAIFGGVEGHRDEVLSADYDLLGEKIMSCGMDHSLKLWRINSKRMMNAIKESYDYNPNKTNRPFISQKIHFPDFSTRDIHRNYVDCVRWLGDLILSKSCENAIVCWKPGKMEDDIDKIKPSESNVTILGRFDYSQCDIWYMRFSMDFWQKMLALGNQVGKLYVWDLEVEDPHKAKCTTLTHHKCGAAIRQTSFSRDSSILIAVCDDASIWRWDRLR
Chain of human PRC2 core complex (EZH2^N 1-385 lacking 183-210, EZH2^C 421-746, EED 77-441, SUZ12 535-685) (human) (Q15022 535-685, chain 4 of 4, further chain): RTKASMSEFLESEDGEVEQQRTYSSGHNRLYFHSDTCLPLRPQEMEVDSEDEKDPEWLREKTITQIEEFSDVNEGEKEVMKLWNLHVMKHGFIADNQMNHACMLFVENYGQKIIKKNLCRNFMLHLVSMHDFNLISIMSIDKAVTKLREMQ

Chain of human PRC2 complex (Q15910 421-746 limits assumed, stated change not applied): as the sequence (Q15910 421-746, chain 2 of 4) above
Chain of human PRC2 complex (Q15910 with tags, fused parts or gaps DEL183-210 limits assumed): as the sequence (Q15910 other isoform, or with tags, fused parts or gaps, chain 1 of 4) above
Chain of human PRC2 complex (O75530 77-441 partner limits assumed): as the sequence (O75530 77-441, chain 3 of 4, further chain) above
Chain of human PRC2 complex (Q15022 535-685 partner limits assumed): as the sequence (Q15022 535-685, chain 4 of 4, further chain) above

Molecule: Nc1ncnc2c1ncn2[C@@H]1O[C@H](CSCC[C@H](N)C(=O)O)[C@@H](O)[C@H]1O [SAH]
binding of cofactor product (human PRC2 complex; relative to SAM): binds much weaker

Molecule: Jarid2 K116me3: trimethylated K116 Jarid2 peptide (residues 111–121), binds EED and activates PRC2
activation of PRC2 (PRC2 [1]): strongest activation of PRC2

Molecule: Norleucine
relative inhibition of PRC2 by residue at position 27 (words) (PRC2 [2]): even better inhibitor than methionine
relative inhibition of PRC2 by residue at position 27 (words) (PRC2 [2]; listed as norleucine): strong inhibition

Continued, values first:

Kd (human PRC2 complex): 47 ± 9 µM
Molecule: C[S+](CC[C@H](N)C(=O)[O-])C[C@H]1O[C@@H](n2cnc3c(N)ncnc32)[C@H](O)[C@@H]1O (stereo partly drawn) [SAM, S-adenosylmethionine]

Kd [3]: 73 µM
Molecule: unlabelled H3R26AK27M peptide
